Experimental data as given in patent publication US7598244B2, “[1,2,4]triazolo[1,5,a]pyrimidin-2-ylurea derivative and use thereof” (Nippon Kayaku Kabushiki Kaisha, priority 2003, dated 2009).

Assays:
[1] = system: MHC class I molecules of human peripheral blood-derived dendritic cells; test: Effect on expression of MHC class I molecules from human peripheral blood-derived dendritic cells; format: cell-based; details: dendritic cells matured with TNF-α, 3 days; read-out: EC50 (reduction of 50% of the number of cells wherein MHC class I molecules were highly expressed)
Description: Effect on Expression of MHC Class I Molecules from Human Peripheral Blood-Derived Dendritic Cells
Monocytes were isolated from human peripheral blood by the specific gravity centrifugation method. Thereafter, using mouse anti-human CD14 antibody-binding microbeads and a magnetic cell separation system (Miltenyi Biotec), CD14 positive cells were separated from the peripheral blood monocytes. The separated CD14 positive cells were suspended in an RPMI 1640 medium containing 10% FBS, and the suspension was then inoculated in a 6-well plate, resulting in a concentration of 1.0×10^6 cells/well. It was cultured at 37° C. for 20 minutes in an incubator containing 5% carbon dioxide. […] Thereafter, RPMI 1640 containing a 500 U/ml human recombinant […] (hereinafter referred to as GM-CSF; Anapure Bioscientific), 50 ng/ml human recombinant interleukin 4 (hereinafter referred to as IL-4; Pepro Tech), and 10% FBS, was added to the remaining suspension at a concentration of 2 ml/well. The obtained mixture was then cultured at 37° C. in an incubator containing 5% carbon dioxide. When adhesive CD14 positive cells are cultured in the presence of GM-CSF and IL-4, the CD14 positive cells were differentiated into non-adhesive immature dendritic cells. After the cells had been cultured for 7 days, non-adhesive cells were recovered to obtain immature dendritic cells. Using a 6-well plate, the immature dendritic cells (2.5×10^5 cells/well) were cultured in RPMI 1640 containing a 100 U/ml human recombinant tumor necrosis factor-α (hereinafter referred to as TNF-a; Pepro Tech), a test compound, and 10% FBS, at 37° C. for 3 days in an incubator containing 5% carbon dioxide. The dendritic cells became mature as a result of the presence of TNF-α, but in the present test, a test compound was allowed to simultaneously act on the cells. The mature dendritic cells were then stained with fluoroisothiocyanate-labeled mouse anti-human MHC class I monoclonal antibody (an antibody generated from the cell line W6/32 (ATCC No. CRL 1991)). The rate of the number of cells wherein MHC class I molecules were highly expressed to the total number of cells was measured by flow cytometry. The reduction rate of the number of cells wherein MHC class I molecules were highly expressed was calculated using the following formula (2), and the concentrations of test compounds necessary for reduction of 50% (EC50 values) were obtained.
[formula] • Eexp: (The number of cells, wherein MHC class I molecules are highly expressed, in cultured cells containing test compound)/(the total number of cells) • Cexp: (The number of cells, wherein MHC class I molecules are highly expressed, in cultured cells containing no test compounds)/(the total number of cells)

[2] = system: BALB/c mice; test: Effect on mouse delayed-type hypersensitivity reaction (DTH reaction), swelling of the sole; format: in vivo; details: Oral
Procedure: Effect on Mouse Delayed-Type Hypersensitivity Reaction (DTH Reaction)
1.0×10^5 sheep erythrocytes (Nippon Seibutsu Zairyo Center, Co., Ltd.) were administered to each of BALB/c mice (Charles River Japan, Inc.; female; 8-week-old) by intravenous injection for sensitization. From the day of administration of the sheep erythrocytes, a test compound was administered to the mouse. As a control, a 0.5% carboxymethyl cellulose (CMC)-Na solution and a normal saline solution used as solvents were administered to the same type of mouse via oral administration or intraperitoneal administration. Five days after the antigen sensitization, 1.0×10^8 sheep erythrocytes were subcutaneously injected into the sole of the mouse. 24 hours later, the thickness of the sole was measured. The value obtained by subtracting the mean value of the thicknesses of the soles of mice, to which a normal saline solution had been administered instead of the sheep erythrocytes, from the above measurement value, was defined as swelling of the sole generated as a result of the DTH reaction. The inhibition rate of the swelling of the sole caused by the DTH reaction was calculated using the following formula (5). The amount of the test compound necessary for inhibition of 50% (ED50 value) was obtained as the activity of the test compound to inhibit the DTH reaction. It is to be noted that cyclosporin A was used as a positive control.
[formula] • Eexp: Swelling of sole of mouse to which test compound was administered • Cexp: Swelling of sole of mouse to which solvent was administered

[3] = system: (C57BL/6XB6. C—H2^bml) F1 mice; test: Life-lengthening effect on graft versus host disease (GVHD); format: in vivo, mouse; details: oral, once a day
Procedure: Life-Lengthening Effect on Graft Versus Host Disease (GVHD)
The present test was carried out by modification of the method of Jonathan et al. (Jonathan et al., Blood, p. 93 (1999)). First, 6.0 Gy X-ray was applied to (C57BL/6XB6. C—H2^bml) F1 mice (produced by mating 6XB6.C—H2^bml mice (Jackson Laboratory) with C57BL/6 mice (Charles River Japan); female; 8 to 12-week-old). Thereafter, CD8 positive T cells (1.25×10^6 cells) prepared from the splenic cells of C57BL/6 mice (Charles River Japan; female; 8-week-old) were intravenously injected into the above (C57BL/6XB6. C—H2^bml) F1 mice. From the day before the injection, the test compound having each diluted concentration or 0.5% carboxymethyl cellulose used as a solvent was orally administered to the mice once a day for 7 to 30 consecutive days. The day on which the transplantation was conducted was defined as day 0. Based on the median of the survival days of each group, the prolongation rate of such survival dates was calculated using the following formula (7). Thus, the effect of the test compound on GVHD was analyzed.
[formula] • Eexp: Median of survival days of test compound administration group • Cexp: Median of survival days of solvent administration group

[4] = system: CD80; test: Expression of antigen-presenting and costimulatory molecules of human peripheral blood-derived dendritic cells: CD80; format: cell-based
Procedure: Action on Expression of Antigen-Presenting Molecules and Costimulatory Molecules of Human Peripheral Blood-Derived Dendritic Cells
The dendritic cells obtained by the same method as in Test Example 2 were suspended in RPMI 1640 comprising 10% FCS containing 500 U/ml GM-CSF, 50 ng/ml IL-4, and 100 U/ml human recombinant tumor necrosis factor (2.5×10^6 cells/ml). Thereafter, the suspension was inoculated into a 6-well plate at an amount of 2.0 ml/well, and the test compound was then added thereto. The mixture was cultured at 37° C. for 3 days in an incubator containing 5% carbon dioxide. Thereafter, the suspended cells were recovered. The cells were then stained with fluoroisothiocyanate-labeled mouse monoclonal antibodies reacting with MHC class I (Bechman Coulter), CD1a (Immunotech), CD40 (Pharmingen), CD80 (Pharmingen), and CD83 (Immunotech). Thereafter, mean fluorescence intensity and the ratio of positive cells were measured by flow cytometry. The expression level was calculated by the formula “the mean fluorescence intensity x the ratio of positive cells,” and the inhibition rate of the surface antigen expression level of dendritic cells was then obtained by the following formula (8).
[formula] • Eexp: Expression level of surface antigens of dendritic cells cultured in the presence of test compound • Cexp: Expression level of surface antigens of dendritic cells cultured in the absence of test compound

Question: How did the EC50 [1] turn out when CC(C)NC(=O)Nc1nc2nccc(-c3cccs3)n2n1 [Example 029, 1-isopropyl-3-(7-thiophen-2-yl[1,2,4]triazolo[1,5-a]pyrimidin-2-yl)urea] was run?
Answer: 480 nM

Question: What about the “Inhibition rate (%) of swelling of the sole” value (“Inhibition rate (%)” for short) ([2]; administration period 7 days, 50 mg/kg/single administration) of the same molecule?
Answer: 37.0%

Question: And the “Inhibition rate (%)” value ([2]; administration period 7 days, 100 mg/kg/single administration)?
Answer: 49.5%

Question: And the “Inhibition rate (%)” value ([2]; administration period 8 days, 50 × 2 (50 mg/kg, twice a day))?
Answer: 80.0%

Question: And the “Lengthening rate of survival days (%)” value ([3]; 25 mg/kg/single administration)?
Answer: 75%

Question: What about the “Lengthening rate of survival days (%)” value ([3]; 100 mg/kg/single administration) of the same molecule?
Answer: 200%

Question: And the “Expression inhibition rate by test compound (%), CD80” value ([4]; Analyte 1, 3 days)?
Answer: 83.8%

Question: What about the “Expression inhibition rate by test compound (%), CD80” value ([4]; Analyte 2, 3 days) of the same molecule?
Answer: 12.1%

Question: What about the “Expression inhibition rate by test compound (%), CD80” value ([4]; Analyte 3, 3 days) of the same molecule?
Answer: 26.8%
